Reference: publication doi:10.1101/2025.10.09.681351v1 (biorxiv, 2025)

Assays:
[1] = biological target: EPAS1 (mouse recombinant EPAS1; HIF-2α) (Mus musculus, UniProt P97481); assay: isothermal titration calorimetry; assay type: binding
recombinant human EPAS1 = recombinant human EPAS1 (Homo sapiens, UniProt Q99814); assay: isothermal titration calorimetry; assay type: binding
recombinant human EPAS1, sequence (Q99814 whole entry): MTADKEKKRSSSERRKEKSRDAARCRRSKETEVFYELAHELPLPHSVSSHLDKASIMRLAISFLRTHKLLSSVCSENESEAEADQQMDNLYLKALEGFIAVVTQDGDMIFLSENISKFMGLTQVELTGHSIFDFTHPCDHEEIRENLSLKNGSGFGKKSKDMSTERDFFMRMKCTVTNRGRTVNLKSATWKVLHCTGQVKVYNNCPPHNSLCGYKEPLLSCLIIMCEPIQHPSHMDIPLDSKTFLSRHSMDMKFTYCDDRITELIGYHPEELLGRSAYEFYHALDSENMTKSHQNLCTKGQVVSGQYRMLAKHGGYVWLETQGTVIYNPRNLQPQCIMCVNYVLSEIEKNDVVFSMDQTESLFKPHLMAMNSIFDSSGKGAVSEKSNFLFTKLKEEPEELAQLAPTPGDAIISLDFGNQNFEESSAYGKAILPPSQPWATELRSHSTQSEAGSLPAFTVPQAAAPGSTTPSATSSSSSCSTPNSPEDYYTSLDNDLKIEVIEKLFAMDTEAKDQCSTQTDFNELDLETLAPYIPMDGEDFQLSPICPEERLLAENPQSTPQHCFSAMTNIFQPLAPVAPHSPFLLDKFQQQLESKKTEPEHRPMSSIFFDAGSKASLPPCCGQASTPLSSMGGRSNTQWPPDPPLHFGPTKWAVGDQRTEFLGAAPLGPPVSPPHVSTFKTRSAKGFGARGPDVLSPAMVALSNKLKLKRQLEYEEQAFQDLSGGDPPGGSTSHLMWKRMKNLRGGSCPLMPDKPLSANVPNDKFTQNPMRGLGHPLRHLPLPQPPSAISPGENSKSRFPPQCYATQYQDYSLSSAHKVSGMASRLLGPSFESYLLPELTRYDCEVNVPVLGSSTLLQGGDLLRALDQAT

EPAS1 (mouse recombinant EPAS1; HIF-2α), sequence (P97481 whole entry): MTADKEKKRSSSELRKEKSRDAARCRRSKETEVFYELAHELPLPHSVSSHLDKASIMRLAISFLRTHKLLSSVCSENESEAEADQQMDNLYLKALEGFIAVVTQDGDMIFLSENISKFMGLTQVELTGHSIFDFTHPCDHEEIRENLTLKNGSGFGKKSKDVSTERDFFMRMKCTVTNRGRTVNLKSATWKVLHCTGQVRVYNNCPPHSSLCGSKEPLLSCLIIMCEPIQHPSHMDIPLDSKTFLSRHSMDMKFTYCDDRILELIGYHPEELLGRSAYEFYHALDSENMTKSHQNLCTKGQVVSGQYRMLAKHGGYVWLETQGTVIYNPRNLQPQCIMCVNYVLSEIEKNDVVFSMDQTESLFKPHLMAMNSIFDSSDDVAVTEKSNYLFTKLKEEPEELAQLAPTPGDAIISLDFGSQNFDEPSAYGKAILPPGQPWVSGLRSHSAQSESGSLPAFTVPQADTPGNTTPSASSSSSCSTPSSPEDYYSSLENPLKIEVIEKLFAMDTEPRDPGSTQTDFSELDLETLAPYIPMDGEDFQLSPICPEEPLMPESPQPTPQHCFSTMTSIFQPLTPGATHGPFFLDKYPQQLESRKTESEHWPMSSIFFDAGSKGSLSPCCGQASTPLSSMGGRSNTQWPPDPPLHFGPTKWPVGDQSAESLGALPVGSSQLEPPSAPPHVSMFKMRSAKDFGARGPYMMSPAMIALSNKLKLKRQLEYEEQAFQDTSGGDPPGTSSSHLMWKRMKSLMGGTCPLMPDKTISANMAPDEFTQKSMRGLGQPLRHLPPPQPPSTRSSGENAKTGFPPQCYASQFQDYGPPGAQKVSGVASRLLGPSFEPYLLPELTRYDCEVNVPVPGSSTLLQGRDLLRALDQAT

Kd [1]: 4.3 µM | Kd (recombinant human EPAS1): 5.3 µM
SMILES: CCCCCCCCC/C=C\C(=O)O [BDSF]
